Laboratory results from ChEMBL document CHEMBL6087474, “Discovery of an Efficacious RET PROTAC Degrader with Enhanced Antiproliferative Activity against Resistant Cancer Cells Harboring RET Solvent-Front Mutations” (J Med Chem, 2025).

Experiments:
BaF3 [1] = assay: PROTAC activity at CRBN/KIF5B-RET (unknown origin) expressed in mouse BaF3 cells assessed as induction of RET degradation at 1000 nM measured after 6 hrs by Western blot analysis relative to control; type: cell-based
BaF3 [2] = assay: PROTAC activity at CRBN/KIF5B-RET (unknown origin) expressed in mouse BaF3 cells assessed as induction of RET degradation at 100 nM measured after 6 hrs by Western blot analysis relative to control; type: cell-based
BaF3 [3] = assay: PROTAC activity at CRBN/KIF5B-RET (unknown origin) expressed in mouse BaF3 cells assessed as induction of RET degradation at 10 nM measured after 6 hrs by Western blot analysis relative to control; type: cell-based
BaF3 [4] = assay: Antiproliferative activity against mouse BaF3 cells stably expressing KIF5B-RET fusion protein incubated for 72 hrs by CCK-8 assay; type: functional, cell-based; conditions: BaF3, 72 h
BaF3 [5] = assay: Antiproliferative activity against mouse BaF3 cells stably expressing KIF5B-RET-V804L mutant incubated for 72 hrs by CCK-8 assay; type: functional, cell-based; conditions: BaF3, 72 h
BaF3 [6] = assay: Antiproliferative activity against mouse BaF3 cells stably expressing CCDC6-RET-G810C mutant incubated for 72 hrs by CCK-8 assay; type: functional, cell-based; conditions: BaF3, 72 h
BaF3 [7] = assay: Antiproliferative activity against mouse BaF3 cells stably expressing KIF5B-RET-V804M mutant incubated for 72 hrs by CCK-8 assay; type: functional, cell-based; conditions: BaF3, 72 h
BaF3 [8] = assay: Antiproliferative activity against mouse BaF3 cells stably expressing KIF5B-RET-G810S mutant incubated for 72 hrs by CCK-8 assay; type: functional, cell-based; conditions: BaF3, 72 h
BaF3 [9] = assay: Antiproliferative activity against mouse BaF3 cells stably expressing KIF5B-RET-G810R mutant incubated for 72 hrs by CCK-8 assay; type: functional, cell-based; conditions: BaF3, 72 h
BaF3 [10] = assay: Antiproliferative activity against mouse BaF3 cells stably expressing CCDC6-RET incubated for 72 hrs by CCK-8 assay; type: functional, cell-based; conditions: BaF3, 72 h
BaF3 [11] = assay: Antiproliferative activity against mouse BaF3 cells stably expressing CCDC6-RET-V804M mutant incubated for 72 hrs by CCK-8 assay; type: functional, cell-based; conditions: BaF3, 72 h
BaF3 [12] = assay: Antiproliferative activity against mouse BaF3 cells stably expressing KIF5B-RET-G810C mutant incubated for 72 hrs by CCK-8 assay; type: functional, cell-based; conditions: BaF3, 72 h
BaF3 [13] = assay: PROTAC activity at VHL/KIF5B-RET (unknown origin) expressed in mouse BaF3 cells assessed as induction of RET degradation at 100 nM measured after 6 hrs by Western blot analysis relative to control; type: cell-based
BaF3 [14] = assay: PROTAC activity at VHL/KIF5B-RET (unknown origin) expressed in mouse BaF3 cells assessed as induction of RET degradation at 10 nM measured after 6 hrs by Western blot analysis relative to control; type: cell-based
BaF3 [15] = assay: PROTAC activity at VHL/KIF5B-RET (unknown origin) expressed in mouse BaF3 cells assessed as induction of RET degradation at 1000 nM measured after 6 hrs by Western blot analysis relative to control; type: cell-based

Structure (SMILES)	Activity (BaF3 [1])	Activity (BaF3 [2])	Activity (BaF3 [3])	Activity (BaF3 [13])	Activity (BaF3 [14])	Activity (BaF3 [15])	other results
COc1ccc(CN2C3CC2CN(c2ccc(-c4cc(-c5cnn(C6CCN(CC#Cc7cccc8c7CN(C7CCC(=O)NC7=O)C8=O)CC6)c5)cn5ncc(C#N)c45)cn2)C3)cn1 (centres undefined)	14%	7%	9%				
COc1ccc(CN2C3CC2CN(c2ccc(-c4cc(-c5cnn(C6CCN(CCCCCC#Cc7cccc8c7CN(C7CCC(=O)N(C)C7=O)C8=O)CC6)c5)cn5ncc(C#N)c45)cn2)C3)cn1 (centres undefined)							IC50 (BaF3 [4]): 20 nM; IC50 (BaF3 [5]): 50 nM; IC50 (BaF3 [6]): 100 nM; IC50 (BaF3 [7]): 70 nM; IC50 (BaF3 [8]): 240 nM; IC50 (BaF3 [9]): 1690 nM; IC50 (BaF3 [10]): 10 nM; IC50 (BaF3 [11]): 20 nM; IC50 (BaF3 [12]): 700 nM
COc1ccc(CN2C3CC2CN(c2ccc(-c4cc(-c5cnn(CCCCC(=O)N[C@H](C(=O)N6C[C@H](O)C[C@H]6C(=O)N[C@@H](C)c6ccc(-c7scnc7C)cc6)C(C)(C)C)c5)cn5ncc(C#N)c45)cn2)C3)cn1				-11%	-14%	-11%	
COc1ccc(CN2C3CC2CN(c2ccc(-c4cc(-c5cnn(CCCCCCCCC(=O)N[C@H](C(=O)N6C[C@H](O)C[C@H]6C(=O)N[C@@H](C)c6ccc(-c7scnc7C)cc6)C(C)(C)C)c5)cn5ncc(C#N)c45)cn2)C3)cn1				34%	1%	39%	
COc1ccc(CN2C3CC2CN(c2ccc(-c4cc(-c5cnn(C6CCN(CCCCC#Cc7cccc8c7CN(C7CCC(=O)NC7=O)C8=O)CC6)c5)cn5ncc(C#N)c45)cn2)C3)cn1 (centres undefined)	48%	42%	16%				
COc1ccc(CN2C3CC2CN(c2ccc(-c4cc(-c5cnn(CCCCC#Cc6cccc7c6CN(C6CCC(=O)NC6=O)C7=O)c5)cn5ncc(C#N)c45)cn2)C3)cn1 (centres undefined)	21%	23%	19%				
COc1ccc(CN2C3CC2CN(c2ccc(-c4cc(-c5cnn(CCCCCCCCCCC(=O)N[C@H](C(=O)N6C[C@H](O)C[C@H]6C(=O)N[C@@H](C)c6ccc(-c7scnc7C)cc6)C(C)(C)C)c5)cn5ncc(C#N)c45)cn2)C3)cn1				39%	17%	32%	
COc1ccc(CN2C3CC2CN(c2ccc(-c4cc(-c5cnn(CCCCCCC#Cc6cccc7c6CN(C6CCC(=O)NC6=O)C7=O)c5)cn5ncc(C#N)c45)cn2)C3)cn1 (centres undefined)	22%	31%	27%				
COc1ccc(CN2C3CC2CN(c2ccc(-c4cc(-c5cnn(C6CCN(C(=O)CN7CCN(c8ccc9c(c8)C(=O)N(C8CCC(=O)NC8=O)C9=O)CC7)CC6)c5)cn5ncc(C#N)c45)cn2)C3)cn1 (centres undefined)	41%	49%	37%				
COc1ccc(CN2C3CC2CN(c2ccc(-c4cc(-c5cnn(CCCCCCCCCCCCCCC(=O)N[C@H](C(=O)N6C[C@H](O)C[C@H]6C(=O)N[C@@H](C)c6ccc(-c7scnc7C)cc6)C(C)(C)C)c5)cn5ncc(C#N)c45)cn2)C3)cn1				3%	-6%	20%	
COc1ccc(CN2C3CC2CN(c2ccc(-c4cc(-c5cnn(CCCCCCCCCCC#Cc6cccc7c6CN(C6CCC(=O)NC6=O)C7=O)c5)cn5ncc(C#N)c45)cn2)C3)cn1 (centres undefined)	54%	39%	15%				
COc1ccc(CN2C3CC2CN(c2ccc(-c4cc(-c5cnn(C6CCN(CCCCCCC#Cc7cccc8c7CN(C7CCC(=O)NC7=O)C8=O)CC6)c5)cn5ncc(C#N)c45)cn2)C3)cn1 (centres undefined)	47%	46%	35%				
COc1ccc(CN2C3CC2CN(c2ccc(-c4cc(-c5cnn(C6CCN(CC(=O)N7CCN(c8ccc9c(c8)C(=O)N(C8CCC(=O)NC8=O)C9=O)CC7)CC6)c5)cn5ncc(C#N)c45)cn2)C3)cn1 (centres undefined)	32%	34%	30%				
COc1ccc(CN2C3CC2CN(c2ccc(-c4cc(-c5cnn(CCCCCCCCC#Cc6cccc7c6CN(C6CCC(=O)NC6=O)C7=O)c5)cn5ncc(C#N)c45)cn2)C3)cn1 (centres undefined)	34%	47%	17%				
COc1ccc(CN2C3CC2CN(c2ccc(-c4cc(OCC(C)(C)O)cn5ncc(C#N)c45)cn2)C3)cn1 [SELPERCATINIB]							IC50 (BaF3 [5]): 30 nM; IC50 (BaF3 [6]): 350 nM; IC50 (BaF3 [8]): 570 nM; IC50 (BaF3 [9]): 1060 nM; IC50 (BaF3 [11]): 50 nM; IC50 (BaF3 [12]): 690 nM
COc1ccc(CN2C3CC2CN(c2ccc(-c4cc(-c5cnn(CCOCCOCCC(=O)N[C@H](C(=O)N6C[C@H](O)C[C@H]6C(=O)N[C@@H](C)c6ccc(-c7scnc7C)cc6)C(C)(C)C)c5)cn5ncc(C#N)c45)cn2)C3)cn1				1%	8%	-5%	
COc1ccc(CN2C3CC2CN(c2ccc(-c4cc(-c5cnn(CCC#Cc6cccc7c6CN(C6CCC(=O)NC6=O)C7=O)c5)cn5ncc(C#N)c45)cn2)C3)cn1 (centres undefined)	25%	26%	15%				
COc1ccc(CN2C3CC2CN(c2ccc(-c4cc(-c5cnn(CCCCCCC(=O)N[C@H](C(=O)N6C[C@H](O)C[C@H]6C(=O)N[C@@H](C)c6ccc(-c7scnc7C)cc6)C(C)(C)C)c5)cn5ncc(C#N)c45)cn2)C3)cn1				49%	16%	51%	
COc1ccc(CN2C3CC2CN(c2ccc(-c4cc(-c5cnn(C6CCN(CCCCCCCC#Cc7cccc8c7CN(C7CCC(=O)NC7=O)C8=O)CC6)c5)cn5ncc(C#N)c45)cn2)C3)cn1 (centres undefined)	30%	16%	12%				
COc1ccc(CN2C3CC2CN(c2ccc(-c4cc(-c5cnn(C6CCN(CCCC#Cc7cccc8c7CN(C7CCC(=O)NC7=O)C8=O)CC6)c5)cn5ncc(C#N)c45)cn2)C3)cn1 (centres undefined)	51%	35%	19%				
